The values that follow come from US20170275275A1, “BENZENESULFONAMIDES USEFUL AS SODIUM CHANNEL INHIBITORS” (PFIZER INC., priority 2014, published 2017).

In series [1] the target is T1, Nav1.7 (or SCN9A) channel (Homo sapiens, UniProt Q15858).
T1 construct: expressed in transfected cells
Put plainly: Nav1.7 (hSCN9A) channel block, PatchXpress (PX) whole-cell electrophysiology in stably transfected HEK cells. Format: cell-based. Particulars: estimated IC50 from single point electrophysiology data; PatchXpress platform; HEK cells expressing hSCN9A; clamped at V1/2 of inactivation; read-out: Nav1.7 EIC50. On the procedure:
The ability of the compounds of formula (I) to block the Nav1.7 (or SCN9A) channel was measured using the assay described below.
Human Embryonic Kidney (HEK) cells were transfected with an hSCN9A construct using lipofectamine reagent (Invitrogen), using standard techniques. Cells stably expressing the hSCN9A constructs were identified by their resistance to G-418 (400 μg/ml). Clones were screened for expression using the whole-cell voltage-clamp technique.
HEK cells stably transfected with hSCN9A were maintained in DMEM medium supplemented with 10% heat-inactivated fetal bovine serum and 400 μg/ml G-418 in an incubator at 37° C. with a humidified atmosphere of 10% CO2. For HTS, cells were harvested from flasks by trypsinization and replated in an appropriate multi-well plate (typically 96 or 384 wells/plate) such that confluence would be achieved within 24 hours of plating. Cells were typically used for electrophysiological experiments within 24 to 72 hours after plating.
For conventional whole-cell voltage clamp experiments cells were removed from the culture flask by brief trypsinization and re-plated at low density onto glass cover slips. Cover slips containing HEK cells expressing hSCN9A were placed in a bath on the stage of an inverted microscope and perfused (approximately 1 ml/minutes) with extracellular solution of the following composition: 138 mM NaCl, 2 mM CaCl2, 5.4 mM KCl, 1 mM MgCl2, 10 mM glucose, and 10 mM HEPES, pH 7.4, with NaOH. […] The osmolarity of the extracellular and intracellular solutions was 300 mOsm/kg and 295 mOsm/kg, respectively. All recordings were made at room temperature (22-24° C.) using AXOPATCH 200B amplifiers and PCLAMP software (Axon Instruments, Burlingame, Calif.). hSCN9A currents in HEK cells were measured using the whole-cell configuration of the patch-clamp technique (Hamill et al., 1981). Uncompensated series resistance was typically 2 to 5 mega ohms and >85% series resistance compensation was routinely achieved. […] Current records were acquired at 20 to 50 KHz and filtered at 5 to 10 KHz.
HEK cells stably transfected with hSCN9A were viewed under Hoffman contrast optics and placed in front of an array of flow pipes emitting either control or compound-containing extracellular solutions.
The voltage-dependence of inactivation was determined by applying a series of depolarizing prepulses (8 sec long in 10 mV increments) from a negative holding potential. The voltage was then immediately stepped to 0 mV to assess the magnitude of the sodium current. Currents elicited at 0 mV were plotted as a function of prepulse potential to allow estimation of the voltage at which 50% of the channels were inactivated (midpoint of inactivation or V1/2). Compounds were tested for their ability to inhibit hSCN9A sodium channels by activating the channel with a 20 msec voltage step […] to 0 mV following an 8 second conditioning prepulse to the empirically determined V1/2. Compound effect (% inhibition) was determined by difference in current amplitude before and after application of test compounds. For ease of comparison, “estimated IC-50” (EIC50) values were calculated from single point electrophysiology data by the following equation, (tested concentration, nM)×(100-% inhibition/% inhibition). Inhibition values <20% and >80% were excluded from the calculation.
Electrophysiological assays were conducted with PatchXpress 7000 hardware and associated software (Molecular Devices Corp). All assay buffers and solutions were identical to those used in conventional whole-cell voltage clamp experiments described above. hSCN9A cells were grown as above to 50%-80% confluency and harvested by trypsinization. Trypsinized cells were washed and resuspended in extracellular buffer at a concentration of 1×10^6 cells/ml. The onboard liquid handling facility of the PatchXpress was used for dispensing cells and application of test compounds.

A short description of series [2]: Aqueous solubility, shake-flask method. Particulars: aqueous buffer, thermodynamic from solid. The format is physicochemical. On the procedure:
Aqueous solubility data were generated via a “shake-flask” method where an excess of compound was added to a buffer (typically phosphate buffered saline at pH 7.4) and shaken for a period of 18 hours at room temperature. After this time any excess solid was removed by double centrifugation to obtain a saturated aqueous solution. The amount of compound solubilised was quantified by HPLC-UV or LC-MS against a standard calibration curve.
The solubility data generated are set out below. Where a greater than figure is quoted, all available compound was solubilised and saturation was not achieved in the conditions employed.

The mark [3] stands for this setting: pH 7.5, shaken 18 hours at room temperature.

Structures can show the parent of a compound that is named as a salt.

T1 sequence (Q15858 whole entry): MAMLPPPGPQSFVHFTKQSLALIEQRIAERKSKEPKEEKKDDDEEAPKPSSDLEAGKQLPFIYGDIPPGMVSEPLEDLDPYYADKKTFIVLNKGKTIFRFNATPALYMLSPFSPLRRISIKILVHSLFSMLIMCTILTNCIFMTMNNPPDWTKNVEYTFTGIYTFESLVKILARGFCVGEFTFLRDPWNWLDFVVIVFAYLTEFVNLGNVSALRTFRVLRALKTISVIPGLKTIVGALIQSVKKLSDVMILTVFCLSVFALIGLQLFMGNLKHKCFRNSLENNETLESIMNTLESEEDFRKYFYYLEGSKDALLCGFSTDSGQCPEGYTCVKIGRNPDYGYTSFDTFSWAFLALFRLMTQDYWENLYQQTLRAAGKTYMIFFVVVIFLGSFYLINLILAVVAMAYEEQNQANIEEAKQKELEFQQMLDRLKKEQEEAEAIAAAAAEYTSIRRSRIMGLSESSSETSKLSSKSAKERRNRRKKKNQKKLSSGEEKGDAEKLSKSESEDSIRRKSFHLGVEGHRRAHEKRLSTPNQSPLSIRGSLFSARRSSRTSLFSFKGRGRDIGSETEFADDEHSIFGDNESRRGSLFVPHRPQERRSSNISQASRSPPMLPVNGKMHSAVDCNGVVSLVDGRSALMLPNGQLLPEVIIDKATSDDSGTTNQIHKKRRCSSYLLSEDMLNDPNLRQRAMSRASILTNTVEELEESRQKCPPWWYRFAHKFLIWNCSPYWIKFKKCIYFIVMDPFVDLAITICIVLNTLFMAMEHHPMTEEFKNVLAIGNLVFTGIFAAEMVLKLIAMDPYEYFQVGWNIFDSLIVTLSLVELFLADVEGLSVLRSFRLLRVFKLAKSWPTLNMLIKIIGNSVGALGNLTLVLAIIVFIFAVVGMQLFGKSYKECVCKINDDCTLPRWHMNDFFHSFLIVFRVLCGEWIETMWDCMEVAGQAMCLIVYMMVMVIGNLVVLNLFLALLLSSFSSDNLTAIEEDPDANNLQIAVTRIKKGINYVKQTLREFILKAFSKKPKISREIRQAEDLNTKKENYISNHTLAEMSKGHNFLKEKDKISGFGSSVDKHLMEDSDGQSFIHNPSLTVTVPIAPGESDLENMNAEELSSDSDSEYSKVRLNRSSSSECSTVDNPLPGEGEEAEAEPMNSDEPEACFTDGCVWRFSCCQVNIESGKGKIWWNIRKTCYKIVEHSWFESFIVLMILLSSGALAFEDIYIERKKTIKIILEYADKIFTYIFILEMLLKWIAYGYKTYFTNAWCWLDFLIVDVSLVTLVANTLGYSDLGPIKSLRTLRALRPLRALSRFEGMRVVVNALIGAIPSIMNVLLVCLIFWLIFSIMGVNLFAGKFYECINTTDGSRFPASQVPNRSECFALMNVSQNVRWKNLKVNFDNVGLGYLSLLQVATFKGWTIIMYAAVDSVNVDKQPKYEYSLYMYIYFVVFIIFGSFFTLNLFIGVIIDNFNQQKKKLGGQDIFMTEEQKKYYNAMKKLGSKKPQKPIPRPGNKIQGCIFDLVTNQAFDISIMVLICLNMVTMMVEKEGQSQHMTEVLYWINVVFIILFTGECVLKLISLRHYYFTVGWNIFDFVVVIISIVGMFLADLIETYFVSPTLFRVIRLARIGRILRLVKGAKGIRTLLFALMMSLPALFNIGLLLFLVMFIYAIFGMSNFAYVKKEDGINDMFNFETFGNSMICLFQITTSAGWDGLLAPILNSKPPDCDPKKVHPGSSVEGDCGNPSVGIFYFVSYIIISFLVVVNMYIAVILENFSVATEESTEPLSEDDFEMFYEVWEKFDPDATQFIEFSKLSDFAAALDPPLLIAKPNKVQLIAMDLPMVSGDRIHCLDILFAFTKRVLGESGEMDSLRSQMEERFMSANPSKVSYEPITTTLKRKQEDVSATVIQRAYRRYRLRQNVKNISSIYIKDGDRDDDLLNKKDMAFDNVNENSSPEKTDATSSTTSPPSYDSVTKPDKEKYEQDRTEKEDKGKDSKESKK

Consider `COCCOCCOCCOCCO[C@@H]1CCN(Cc2cc(-c3cc(-c4cccc(C(F)(F)F)c4)ccc3Oc3ccc(S(=O)(=O)Nc4ncns4)cc3C#N)ccn2)C1` [Example 21, (R)-4-((3-(2-((3-((2,5,8,11-tetraoxatridecan-13-yl)oxy)pyrrolidin-1-yl)methyl)pyridin-4-yl)-3′-(trifluoromethyl)-[1,1′-biphenyl]-4-yl)oxy)-3-cyano-N-(1,2,4-thiadiazol-5-yl)benzenesulfonamide trifluoroacetate salt], for which the IC50 in series [1] is 7.9 nM. In series [2] (setting [3]), this compound gave a solubility at 18 h of 56 µg/mL.
Regarding `N#Cc1cc(S(=O)(=O)Nc2ncns2)ccc1Oc1ccc(-c2cccc(C(F)(F)F)c2)cc1-c1ccnc(CN)c1` [Example 26, 4-({3-[2-(Aminomethyl)pyridin-4-yl]-3′-(trifluoromethyl)biphenyl-4-yl}oxy)-3-cyano-N-1,2,4-thiadiazol-5-ylbenzenesulfonamide bis-formate salt], in series [1], the IC50 is 0.5 nM. In addition, the solubility at 18 h in series [2] (setting [3]) was 3 µg/mL.
As for `NCc1cc(-c2cc(-c3cccc(C(F)(F)F)c3)ccc2Oc2cc(F)c(S(=O)(=O)Nc3cscn3)cc2Cl)ccn1` [Example 29, 4-({3-[2-(aminomethyl)pyridin-4-yl]-3′-(trifluoromethyl)biphenyl-4-yl}oxy)-5-chloro-2-fluoro-N-(1,3-thiazol-4-yl)benzenesulfonamide dihydrochloride salt], the IC50 in series [1] was 2.9 nM. In series [2] (pH 7.0, shaken 18 hours at room temperature), this compound returned a solubility at 18 h of less than 0.5 µg/mL.
